Counter-ions that a name gives are not always drawn.
Columns and labels:
[1] = system: mouse models of pressure overload-induced cardiac hypertrophy/heart failure (TAC); assay: Mouse models of pressure overload-induced (TAC) heart failure during acute phase; format: in vivo; settings: TAC mice, 50 mg/kg i.p. immediately after TAC, three hours later
Description: (§1) Transverse aortic constriction (TAC) was performed as described previously [Date, et al. (2002) The antioxidant N-2-mercaptopropionyl glycine attenuates left ventricular hypertrophy in in vivo murine pressure-overload model. J Am Coll Cardiol 39: 907-912.]. Briefly, 8- to 10-week-old mice were anesthetized with anesthetic (0.3 mg/kg of medetomidine, 4.0 mg/kg of midazolam, and 5.0 mg/kg of butorphanol) administered intraperitoneally, and the proximal portion of the sternum was cut open to visualize the aorta. A 7-0 silk suture was placed around the aortic arch distal to the brachiocephalic artery. The suture was tightened firmly around a blunt 26-gauge needle placed adjacent to the aorta. The needle was then removed, and the chest and overlying skin were closed. Sham-operated mice underwent an identical surgical procedure without ligation of the aortic arch. At the end of the operation, 0.3 mg/kg of atipamezole was administered subcutaneously to reverse medetomidine. FIG. 1 is a schematic diagram of TAC.
To extract total RNA, tissue samples were homogenized using a polytron homogenizer in 1 mL of TriPure reagent (Sigma-Aldrich), and the total RNA was extracted in accordance with the manufacture's protocol. Total RNA extracted from cells was also isolated using 1 mL of TriPure reagent. The quantity and quality of total RNA were determined using a NanoDrop™2000 spectrophotometer (Thermo Scientific).
Total RNA was reverse transcribed by blend primer of random hexamers and oligo-dT 3:1 (volume/volume) using Verso™ cDNA Synthesis Kit (Thermo Fisher Scientific, AB1453A) in accordance with the manufacturer's protocol, and the cDNA was analyzed by qRT-PCR. qRT-PCR measurements used THUNDERBIRD SYBR qPCR Mix (TOYOBO) in accordance with the manufacturer's instructions. Expression levels of messenger RNAs (mRNAs) were normalized by the indicated housekeeping genes, and calculated by the 2^−ΔΔCt method. All analyses were performed using a StepOnePlus real-time PCR system and StepOne Software v2.3 (Applied Biosystems, Inc). […]

[2] = system: mouse models of pressure overload-induced cardiac hypertrophy/heart failure (TAC); assay: Mouse models of TAC heart failure during cardiac hypertrophic phase; format: in vivo
Description: as §1
Total RNA was reverse transcribed by blend primer of random hexamers and oligo-dT 3:1 (volume/volume) using Verso™ cDNA Synthesis Kit (Thermo Fisher Scientific, AB1453A) in accordance with the manufacturer's protocol, and the cDNA was analyzed by qRT-PCR. qRT-PCR measurements used THUNDERBIRD SYBR qPCR Mix (TOYOBO) in accordance with the manufacturer's instructions. Expression levels of messenger RNAs (mRNAs) were normalized by the indicated housekeeping genes, and calculated by the 2^−ΔΔCt method. All analyses were performed using a StepOnePlus real-time PCR system and StepOne Software v2.3 (Applied Biosystems, Inc).
Wheat Germ Agglutinin (WGA) Staining and the Quantification Paraffin-embedded ventricular short-axis sections were stained with FITC-conjugated lectin (Sigma, L4895). Images were captured by Axio Observer7 (Zeiss). Cardiomyocyte cross-sectional area measurement was performed using ImageJ64 software (NIH). Approximately 150-200 cells were measured per heart, and averages were used for the analysis.
To analyze the cardiac function, we used Vevo® 2100 (VISUALSONICS) at the indicated time points after TAC operation. Mice were kept under inhalation anesthesia with 2.5% isoflurane. LV function was measured in M mode of the parasternal short-axis view.
Mouse models of pressure overload-induced cardiac hypertrophy/heart failure were prepared by TAC and were injected intraperitoneally with 50 mg/kg of KUS121 daily for 2 weeks starting immediately after TAC. Sham-operated mice and control mice were injected with 5% glucose. Two weeks after TAC, echocardiography was performed, then the mice were sacrificed, the body weight and heart weight were measured, and heart samples were collected.

[3] = TAC mice, 50 mg/kg i.p. daily for 2 weeks starting immediately after TAC
[4] = echocardiography two weeks after TAC, 50 mg/kg i.p. daily
[5] = heart tissue, qRT-PCR, 50 mg/kg i.p. daily for 2 weeks after TAC

Structure (SMILES): Cc1cc(F)ccc1-c1ccc(/N=N/c2cc(S(=O)(=O)O)c3ccccc3c2N)cn1 [KUS121, 4-amino-3-[6-(4-fluoro-2-methylphenyl)pyridine-3-ylazo]naphthalene-1-sulfonic acid sodium salt]
- ratio of heart weight to body weight [1]: not significantly affected
- mRNA level of BNP ([1]; vs 5% glucose control): suppressed the increases
- ratio of lung weight to body weight ([1]; vs 5% glucose control): suppressed the increases
- cardiomyocyte cross-sectional area (WGA staining) [2, 3]: suppressed the increase
- heart weight [2, 3]: suppressed the increases
- ratio of heart weight to body weight [2, 3]: suppressed the increases
- interventricular septum diameter at end-diastole (IVSd) [2, 4]: suppressed both
- left ventricular ejection fraction (LVEF) [2, 4]: did not significantly suppress the decrease
- left ventricular mass [2, 4]: suppressed both
- mRNA levels of cardiac hypertrophy markers (BNP and ANF) [2, 5]: suppressed the increases
- mRNA levels of endoplasmic reticulum stress markers (Bip, CHOP, and VCP) [2, 5]: not significantly affected

From US20250057823A1, “COMPOSITION FOR IMPROVING CARDIAC FUNCTION” (Kyoto University, priority 2021, published 2025)
